# According to patent US4515811A, “Process for the resolution of d,1 2-(6-methoxy-2-naphthyl)propionic acid” (Syntex Corporation, priority 1980, dated 1985):
# Where a name gives a salt, the structure may show the parent alone. Read-outs that look alike come from different tables or passages of the source.
# Tests used:
# [1] = system: carrageenin-induced paw inflammation in the rat; conditions: female rats, relative to phenylbutazone = 1, molar basis
# Procedure: The anti-inflammatory activity of each of the compounds listed below is compared with the activity of phenylbutazone by means of the carrageenin-induced rat paw inflammation test described below.
# TEST FOR ANTI-INFLAMMATORY ACTIVITY UTILIZING CARRAGEENIN-INDUCED PAW INFLAMMATION IN THE RAT
# Materials and Methods--Female rats weighing 80-90 grams are used. The test materials are given at hour 0 orally by gavage in 1 ml. aqueous vehicle. At hour 1, 0.05 ml. of a 1% solution (in 0.9% NaCl) of carrageenin is injected into the right hind paw. This injection causes an inflammation of the paw. The rats are sacrificed at hour 4, at which time both hind paws are removed and weighed separately.
# End point: % increase in paw size calculated as follows: [formula]
# [2] = Solubility of resolving agent in water; type: physicochemical
# [3] = Example 32, oral gavage at hour 0, carrageenin at hour 1, sacrificed hour 4
# [4] = Example 33, test of Example 32 repeated, oral
Structure (SMILES),"Oral Anti-Inflammatory Activity (on a molar equivalent basis) (Phenylbutazone = 1) [1, 3]",other results
COc1ccc2cc([C@H](C)C(=O)O)ccc2c1 [N-cyclohexyl-D-glucamine salt of d 2-(6-methoxy-2-naphthyl)p] [N-cyclohexyl-D-glucamine salt of d 2-(6-methoxy-2-naphthyl)propionic acid],11,
COc1ccc2cc([C@H](C)C(=O)O)ccc2c1 [N-cyclooctyl-D-glucamine salt of d 2-(6-methoxy-2-naphthyl)p] [N-cyclooctyl-D-glucamine salt of d 2-(6-methoxy-2-naphthyl)propionic acid],,"Oral Anti-Inflammatory Activity (on a molar equivalent basis) (Phenylbutazone = 1) [1, 4]: 20"
COc1ccc2cc([C@H](C)C(=O)O)ccc2c1 [N-cyclopropyl-D-glucamine salt of d 2-(6-methoxy-2-naphthyl)] [N-cyclopropyl-D-glucamine salt of d 2-(6-methoxy-2-naphthyl)propionic acid],,"Oral Anti-Inflammatory Activity (on a molar equivalent basis) (Phenylbutazone = 1) [1, 4]: 9"
COc1ccc2cc([C@H](C)C(=O)O)ccc2c1 [N-ethyl-D-glucamine salt of d 2-(6-methoxy-2-naphthyl)propio] [N-ethyl-D-glucamine salt of d 2-(6-methoxy-2-naphthyl)propionic acid],17,
COc1ccc2cc([C@H](C)C(=O)O)ccc2c1 [N-n-butyl-D-glucamine salt of d 2-(6-methoxy-2-naphthyl)prop] [N-n-butyl-D-glucamine salt of d 2-(6-methoxy-2-naphthyl)propionic acid],5,
COc1ccc2cc([C@H](C)C(=O)O)ccc2c1 [N-n-octadecyl-D-glucamine salt of d 2-(6-methoxy-2-naphthyl)] [N-n-octadecyl-D-glucamine salt of d 2-(6-methoxy-2-naphthyl)propionic acid],7,
COc1ccc2cc([C@H](C)C(=O)O)ccc2c1 [N-n-octyl-D-glucamine salt of d 2-(6-methoxy-2-naphthyl)prop] [N-n-octyl-D-glucamine salt of d 2-(6-methoxy-2-naphthyl)propionic acid],17,
CCCCCCCCNC[C@H](O)[C@@H](O)[C@H](O)[C@H](O)CO [N-n-octyl-D-glucamine],,solubility in water (in words) [2]: substantially insoluble in water
COc1ccc2cc([C@H](C)C(=O)O)ccc2c1 [N-n-propyl-D-glucamine salt of d 2-(6-methoxy-2-naphthyl)pro] [N-n-propyl-D-glucamine salt of d 2-(6-methoxy-2-naphthyl)propionic acid],20,
